Laboratory results published in ChEMBL document CHEMBL2074577, “Resistance to mitoxantrone in multidrug-resistant MCF7 breast cancer cells: evaluation of mitoxantrone transport and the role of multidrug resistance protein family proteins” (Cancer Res, 2001).

Target: Multidrug resistance-associated protein 1 (Homo sapiens, UniProt P33527)
Experiment: TP_TRANSPORTER: efflux in MCF7/VP and MCF cells
Assay type: functional, cell-based

Chain of Multidrug resistance-associated protein 1 (P33527 whole entry): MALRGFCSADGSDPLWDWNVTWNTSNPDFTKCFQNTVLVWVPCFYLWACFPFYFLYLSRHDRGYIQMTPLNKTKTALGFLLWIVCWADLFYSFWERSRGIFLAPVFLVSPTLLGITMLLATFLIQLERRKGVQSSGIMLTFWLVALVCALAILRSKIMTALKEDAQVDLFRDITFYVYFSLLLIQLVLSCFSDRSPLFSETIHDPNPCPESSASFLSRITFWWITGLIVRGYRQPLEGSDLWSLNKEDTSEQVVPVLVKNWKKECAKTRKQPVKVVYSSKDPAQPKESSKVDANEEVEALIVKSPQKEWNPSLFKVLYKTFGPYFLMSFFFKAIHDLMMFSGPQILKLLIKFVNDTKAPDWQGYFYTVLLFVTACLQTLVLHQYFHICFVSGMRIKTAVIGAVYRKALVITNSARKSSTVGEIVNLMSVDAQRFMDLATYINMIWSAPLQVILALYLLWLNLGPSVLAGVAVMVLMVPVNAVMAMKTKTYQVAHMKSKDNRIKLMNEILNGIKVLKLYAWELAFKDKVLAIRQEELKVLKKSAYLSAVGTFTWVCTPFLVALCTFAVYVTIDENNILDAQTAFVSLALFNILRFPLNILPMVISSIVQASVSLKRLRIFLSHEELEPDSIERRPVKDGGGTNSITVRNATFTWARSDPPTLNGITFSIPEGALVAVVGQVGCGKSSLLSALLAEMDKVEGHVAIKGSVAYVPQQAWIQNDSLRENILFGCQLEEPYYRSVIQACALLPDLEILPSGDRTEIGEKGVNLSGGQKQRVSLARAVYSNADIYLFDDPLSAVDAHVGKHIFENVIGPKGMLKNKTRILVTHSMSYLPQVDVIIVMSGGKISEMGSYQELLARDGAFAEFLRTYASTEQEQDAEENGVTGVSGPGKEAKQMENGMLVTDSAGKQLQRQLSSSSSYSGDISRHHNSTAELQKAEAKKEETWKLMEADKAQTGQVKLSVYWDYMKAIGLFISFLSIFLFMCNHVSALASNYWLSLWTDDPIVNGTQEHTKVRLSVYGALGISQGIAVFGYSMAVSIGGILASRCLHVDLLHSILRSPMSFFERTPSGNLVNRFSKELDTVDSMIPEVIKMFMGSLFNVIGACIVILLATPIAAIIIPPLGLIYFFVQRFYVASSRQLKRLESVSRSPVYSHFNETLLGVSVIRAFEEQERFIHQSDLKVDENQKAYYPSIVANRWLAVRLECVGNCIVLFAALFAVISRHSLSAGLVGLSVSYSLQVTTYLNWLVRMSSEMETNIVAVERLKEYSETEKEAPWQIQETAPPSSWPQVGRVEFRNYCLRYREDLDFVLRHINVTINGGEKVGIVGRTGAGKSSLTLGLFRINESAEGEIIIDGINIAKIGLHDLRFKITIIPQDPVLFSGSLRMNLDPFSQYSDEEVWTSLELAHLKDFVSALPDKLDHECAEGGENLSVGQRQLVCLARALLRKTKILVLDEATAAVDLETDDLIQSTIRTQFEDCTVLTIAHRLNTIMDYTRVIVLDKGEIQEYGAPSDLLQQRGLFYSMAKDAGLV

O=C1c2c(O)ccc(O)c2C(=O)c2c(NCCNCCO)ccc(NCCNCCO)c21 [MITOXANTRONE]
Activity: substrate [+]
